Earlier results on 78 substances are cited in patent US20250231185A1, “Coronavirus T Cell Epitopes, Megapools and Uses Thereof” (La Jolla Institute for Immunology, priority 2021, published 2025).

One data set relates to CD8+ T cells. Particulars: CD8R (D) megapool epitopes; dominant = recognized by 3 or more donors/different studies; cited from earlier work.
On to 1813 (KLFIRQEEV) [compound 1813], for which the Dominant result is “Yes (more dominant epitopes are defined by being recognized by 3 or more donors/different studies)”. On to 1680 (RYRIGNYKL) [compound 1680], for which the Dominant result is recorded as “Yes (more dominant epitopes are defined by being recognized by 3 or more donors/different studies)”. As to 1772 (STFNVPMEK) [compound 1772], the Dominant entry is “Yes (more dominant epitopes are defined by being recognized by 3 or more donors/different studies)”.

With 1788 (SMWALIISV) [compound 1788], the Dominant entry is “Yes (more dominant epitopes are defined by being recognized by 3 or more donors/different studies)”. As for 1730 (LVLSVNPYV) [compound 1730], the Dominant entry is recorded as “Yes (more dominant epitopes are defined by being recognized by 3 or more donors/different studies)”. As to 1715 (TMADLVYAL) [compound 1715], the Dominant entry is listed as “Yes (more dominant epitopes are defined by being recognized by 3 or more donors/different studies)”. Consider 1667 (YVYSRVKNL) [compound 1667], for which the Dominant entry was “Yes (more dominant epitopes are defined by being recognized by 3 or more donors/different studies)”. On to 1795 (ALRANSAVK) [compound 1795], for which the Dominant entry was “Yes (more dominant epitopes are defined by being recognized by 3 or more donors/different studies)”. Consider 1702 (ASAFFGMSR) [compound 1702], for which the Dominant result is on record as “Yes (more dominant epitopes are defined by being recognized by 3 or more donors/different studies)”. In the case of 1753 (MLWCKDGHV) [compound 1753], the Dominant entry is on record as “Yes (more dominant epitopes are defined by being recognized by 3 or more donors/different studies)”. On to 1729 (VLQAVGACV) [compound 1729], for which the Dominant result was “Yes (more dominant epitopes are defined by being recognized by 3 or more donors/different studies)”. On to 1701 (AQFAPSASAF) [compound 1701], for which the Dominant result was “Yes (more dominant epitopes are defined by being recognized by 3 or more donors/different studies)”.

On to 1694 (LALLLLDRL) [compound 1694], for which the Dominant result is on record as “Yes (more dominant epitopes are defined by being recognized by 3 or more donors/different studies)”.

For 1760 (VTNNTFTLK) [compound 1760], the Dominant entry is “Yes (more dominant epitopes are defined by being recognized by 3 or more donors/different studies)”.

Still in this data set, the particulars now being: CD8RE megapool peptides (non-spike SARS-CoV-2 antigens); dominant epitope Yes/No; cited from earlier work.
Take 3020 (FLLPSLATV) [compound 3020]: the Dominant entry is given as “Yes (more dominant epitopes are defined by being recognized by 3 or more donors/different studies)”. 2956 (VVDKYFDCY) [compound 2956]: the Dominant result is on record as “Yes (more dominant epitopes are defined by being recognized by 3 or more donors/different studies)”.

Take 2912 (AVILRGHLR) [compound 2912]: the Dominant entry was “Yes (more dominant epitopes are defined by being recognized by 3 or more donors/different studies)”. 2961 (RILGAGCFV) [compound 2961]: the Dominant result is given as “Yes (more dominant epitopes are defined by being recognized by 3 or more donors/different studies)”. As for 3051 (IQYIDIGNY) [compound 3051], the Dominant result was “Yes (more dominant epitopes are defined by being recognized by 3 or more donors/different studies)”. With 2960 (FYAYLRKHF) [compound 2960], the Dominant result is recorded as “Yes (more dominant epitopes are defined by being recognized by 3 or more donors/different studies)”.

As to 3049 (VFITLCFTLK) [compound 3049], the Dominant result is reported as “Yes (more dominant epitopes are defined by being recognized by 3 or more donors/different studies)”.

2979 (IEYPIIGDEL) [compound 2979]: the Dominant entry is reported as “Yes (more dominant epitopes are defined by being recognized by 3 or more donors/different studies)”. With 2977 (TYACWHHSI) [compound 2977], the Dominant entry is “Yes (more dominant epitopes are defined by being recognized by 3 or more donors/different studies)”.

With 2951 (LLMPILTLT) [compound 2951], the Dominant entry is “Yes (more dominant epitopes are defined by being recognized by 3 or more donors/different studies)”. With 2929 (LALLLLDRL) [compound 2929], the Dominant entry was “Yes (more dominant epitopes are defined by being recognized by 3 or more donors/different studies)”. Regarding 3006 (QLMCQPILLL) [compound 3006], the Dominant result was “Yes (more dominant epitopes are defined by being recognized by 3 or more donors/different studies)”. With 3025 (SEFSSLPSY) [compound 3025], the Dominant result is “Yes (more dominant epitopes are defined by being recognized by 3 or more donors/different studies)”. As to 3016 (GTDLEGNFY) [compound 3016], the Dominant result is “Yes (more dominant epitopes are defined by being recognized by 3 or more donors/different studies)”.

For the substance 3002 (NYMPYFFTL) [compound 3002], the Dominant entry was “Yes (more dominant epitopes are defined by being recognized by 3 or more donors/different studies)”. For the substance 2949 (YTMADLVYAL) [compound 2949], the Dominant result is recorded as “Yes (more dominant epitopes are defined by being recognized by 3 or more donors/different studies)”.

Still in this data set, the particulars now being: SARS-CoV-2-derived CD8 epitopes; dominant = recognized by 3 or more donors/different studies; cited from earlier work.
Turning to 660 (HTTDPSFLGRY) [compound 660], the Dominant entry was “Yes (more dominant epitopes are defined by being recognized by 3 or more donors/different studies)”. As for 628 (PTDNYITTY) [compound 628], the Dominant result is reported as “Yes (more dominant epitopes are defined by being recognized by 3 or more donors/different studies)”.

Take 566 (KTIQPRVEK) [compound 566]: the Dominant entry was “Yes (more dominant epitopes are defined by being recognized by 3 or more donors/different studies)”.

Still in this data set, the particulars now being: SARS-CoV-2 Ag S; T cell type recognizing the epitope; cited from earlier work.
Consider 1383 (GLTVLPPLL) [compound 1383], for which the Restriction entry is “CD8”. Turning to 1426 (QSAPHGVVF) [compound 1426], the Restriction result was “CD8”. For 1368 (GSFCTQLNR) [compound 1368], the Restriction entry is reported as “CD8”.

As for 1376 (IYKTPPIKDF) [compound 1376], the Restriction result was “CD8”.

Turning to 1441 (FVSNGTHWF) [compound 1441], the Restriction result is “CD8”. As to 1440 (VFVSNGTHWF) [compound 1440], the Restriction entry is listed as “CD8”. Consider 1384 (LPPLLTDEM) [compound 1384], for which the Restriction entry is reported as “CD8”.

As for 1406 (RLDKVEAEVQI) [compound 1406], the Restriction entry was “CD8”. With 1443 (HWFVTQRNF) [compound 1443], the Restriction entry is “CD8”. For the substance 1377 (ILPDPSKPSK) [compound 1377], the Restriction entry is listed as “CD8”. For the substance 1364 (KTSVDCTMYI) [compound 1364], the Restriction entry is given as “CD8”. On to 1318 (YQPYRVVVL) [compound 1318], for which the Restriction result was “CD8”.

The data set is the same for the next values; noted with them: T cell subset (CD4 or CD8) recognizing the SARS-CoV-2-derived epitope; cited from earlier work.
As for 559 (HLKDGTCGL) [compound 559], the Restriction result is on record as “CD8”. As for 529 (ELIRQGTDY) [compound 529], the Restriction result was “CD8”. Consider 595 (FEPSTQYEY) [compound 595], for which the Restriction result is “CD8”. As to 650 (NLKTLLSL) [compound 650], the Restriction result is “CD8”.

Regarding 660 (HTTDPSFLGRY) [compound 660], the Restriction entry is “CD8”.

In the case of 628 (PTDNYITTY) [compound 628], the Restriction result is given as “CD8”. For the substance 545 (TPSGTWLTY) [compound 545], the Restriction result is listed as “CD8”.

With 566 (KTIQPRVEK) [compound 566], the Restriction result is “CD8”. On to 544 (VTPSGTWLTY) [compound 544], for which the Restriction entry is given as “CD8”. For 576 (TVYEKLKPV) [compound 576], the Restriction entry is recorded as “CD8”. Regarding 605 (NSFSGYLKL) [compound 605], the Restriction result is listed as “CD8”. For the substance 619 (KIAEIPKEEV) [compound 619], the Restriction result is recorded as “CD8”.

On to 635 (KLMPVCVET) [compound 635], for which the Restriction entry was “CD8”.

On to 573 (ITILDGISQY) [compound 573], for which the Restriction result is given as “CD8”.

Staying with this data set, now noted: T cell type (CD4 or CD8) recognizing the SARS-CoV-2 epitope; cited from earlier work.
Take 977 (SICSTMTNR) [compound 977]: the Restriction entry was “CD8”. Take 962 (YRYNLPTMC) [compound 962]: the Restriction result was “CD8”. For 1038 (IPARARVECF) [compound 1038], the Restriction result is “CD8”. As to 990 (TSSGDATTAY) [compound 990], the Restriction entry is “CD8”. With 959 (AAISDYDYY) [compound 959], the Restriction result is reported as “CD8”. Consider 926 (KVAGFAKFLK) [compound 926], for which the Restriction entry was “CD8”.

As for 972 (NVIPTITQM) [compound 972], the Restriction entry is “CD8”. As for 1071 (SLENVAFNV) [compound 1071], the Restriction result was “CD8”. As for 996 (YAYLRKHF) [compound 996], the Restriction entry is “CD8”. As for 988 (RLANECAQV) [compound 988], the Restriction result is “CD8”. Consider 978 (IAATRGATV) [compound 978], for which the Restriction entry was “CD8”. On to 960 (AISDYDYYR) [compound 960], for which the Restriction entry is “CD8”. Take 1004 (VYLPYPDPSRI) [compound 1004]: the Restriction result is listed as “CD8”.

With 916 (YLYFIKGLNNL) [compound 916], the Restriction entry is on record as “CD8”.

Regarding 1039 (YVFCTVNAL) [compound 1039], the Restriction result is “CD8”. In the case of 921 (YLASGGQPI) [compound 921], the Restriction entry is on record as “CD8”. Take 902 (TFTYASALW) [compound 902]: the Restriction result is “CD8”. On to 912 (SDGTGTIY) [compound 912], for which the Restriction result was “CD8”. As to 929 (VPHISRQRL) [compound 929], the Restriction entry was “CD8”.

Regarding 1002 (KQGDDYVYL) [compound 1002], the Restriction entry is “CD8”. For the substance 925 (KVAGFAKFL) [compound 925], the Restriction entry was “CD8”. As to 947 (FPPTSFGPL) [compound 947], the Restriction result is “CD8”.
